Assay results as given in ChEMBL document CHEMBL2074029, “Substrate specificities of rat oatp1 and ntcp: implications for hepatic organic anion uptake” (Am J Physiol Gastrointest Liver Physiol, 2003).
Each block holds one compound with its values, some of them ahead of it.

What was measured:
Type in all cases: functional, cell-based
[1] = biological target: T1, Solute carrier organic anion transporter family member 1A1 (Rattus norvegicus, UniProt P46720); experiment: TP_TRANSPORTER: uptake of Tauro-23-norcholate at 20 u M in Oatp1-expressing HeLa cells; conditions: human, 20 µM
T1 sequence (P46720 whole entry): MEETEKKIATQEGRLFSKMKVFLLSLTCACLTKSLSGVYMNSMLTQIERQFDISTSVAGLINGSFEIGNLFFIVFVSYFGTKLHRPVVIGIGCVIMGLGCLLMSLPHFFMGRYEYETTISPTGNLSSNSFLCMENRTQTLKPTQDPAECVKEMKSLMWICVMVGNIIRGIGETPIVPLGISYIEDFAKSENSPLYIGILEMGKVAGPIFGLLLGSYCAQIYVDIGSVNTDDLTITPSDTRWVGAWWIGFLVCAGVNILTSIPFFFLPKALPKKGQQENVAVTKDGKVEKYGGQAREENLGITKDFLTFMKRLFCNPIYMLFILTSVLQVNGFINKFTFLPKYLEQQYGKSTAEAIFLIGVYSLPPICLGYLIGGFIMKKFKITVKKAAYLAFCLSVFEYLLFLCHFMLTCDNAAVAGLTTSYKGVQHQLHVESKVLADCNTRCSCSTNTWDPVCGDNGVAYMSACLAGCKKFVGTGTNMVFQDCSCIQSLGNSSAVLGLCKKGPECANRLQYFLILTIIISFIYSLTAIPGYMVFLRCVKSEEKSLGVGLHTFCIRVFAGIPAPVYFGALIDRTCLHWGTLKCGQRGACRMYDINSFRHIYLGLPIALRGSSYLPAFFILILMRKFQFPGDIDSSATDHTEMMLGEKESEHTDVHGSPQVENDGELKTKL

[2] = biological target: T1, Solute carrier organic anion transporter family member 1A1; experiment: TP_TRANSPORTER: uptake of 23-Nor-cholate at 20 u M in Oatp1-expressing HeLa cells; conditions: human, 20 µM
[3] = biological target: T1, Solute carrier organic anion transporter family member 1A1; experiment: TP_TRANSPORTER: uptake of Glyco-23-norcholate at 20 uM in Oatp1-expressing HeLa cells; conditions: human
[4] = biological target: T1, Solute carrier organic anion transporter family member 1A1; experiment: TP_TRANSPORTER: uptake of Chenodeoxycholate at 20 uM in Oatp1-expressing HeLa cells; conditions: human
[5] = biological target: T2, Hepatic sodium/bile acid cotransporter (Rattus norvegicus, UniProt P26435); experiment: TP_TRANSPORTER: uptake of Deoxycholate at a concentration of 1 u M in NTCP-expressing HeLa cells; conditions: human, 1 µM
T2 sequence (P26435 whole entry): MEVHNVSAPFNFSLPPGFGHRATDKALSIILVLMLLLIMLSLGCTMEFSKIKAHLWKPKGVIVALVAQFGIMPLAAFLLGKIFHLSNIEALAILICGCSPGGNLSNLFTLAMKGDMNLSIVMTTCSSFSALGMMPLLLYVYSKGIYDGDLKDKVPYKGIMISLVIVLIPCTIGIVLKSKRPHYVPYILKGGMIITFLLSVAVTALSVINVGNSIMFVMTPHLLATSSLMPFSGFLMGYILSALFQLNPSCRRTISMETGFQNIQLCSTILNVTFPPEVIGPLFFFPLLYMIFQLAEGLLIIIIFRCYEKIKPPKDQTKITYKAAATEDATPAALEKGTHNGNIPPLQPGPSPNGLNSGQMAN

[6] = biological target: T1, Solute carrier organic anion transporter family member 1A1; experiment: TP_TRANSPORTER: uptake of Deoxycholate at 1 uM in Oatp1-expressing HeLa cells; conditions: human
[7] = biological target: T1, Solute carrier organic anion transporter family member 1A1; experiment: TP_TRANSPORTER: uptake of Glycochenodeoxycholate at 20 uM in Oatp1-expressing HeLa cells; conditions: human
[8] = biological target: T2, Hepatic sodium/bile acid cotransporter; experiment: TP_TRANSPORTER: uptake of Glycocholate at a concentration of 4 u M in NTCP-expressing HeLa cells; conditions: human, 4 µM
[9] = biological target: T1, Solute carrier organic anion transporter family member 1A1; experiment: TP_TRANSPORTER: uptake of Glycocholate at 4 u M in Oatp1-expressing HeLa cells; conditions: human, 4 µM
[10] = biological target: T1, Solute carrier organic anion transporter family member 1A1; experiment: TP_TRANSPORTER: uptake of Glycocholate at 20 u M in Oatp1-expressing HeLa cells; conditions: human, 20 µM
[11] = biological target: T1, Solute carrier organic anion transporter family member 1A1; experiment: TP_TRANSPORTER: uptake of Glycotrihydroxycoprostanoic acid at 20 u M in Oatp1-expressing HeLa cells; conditions: human, 20 µM
[12] = biological target: T1, Solute carrier organic anion transporter family member 1A1; experiment: TP_TRANSPORTER: uptake of Glycoursodeoxycholate at 20 u M in Oatp1-expressing HeLa cells; conditions: human, 20 µM
[13] = biological target: T2, Hepatic sodium/bile acid cotransporter; experiment: TP_TRANSPORTER: uptake of Hyodeoxycholate at a concentration of 1 u M in NTCP-expressing HeLa cells; conditions: human, 1 µM
[14] = biological target: T1, Solute carrier organic anion transporter family member 1A1; experiment: TP_TRANSPORTER: uptake of Lagodeoxycholate at 1 uM in Oatp1-expressing HeLa cells; conditions: human
[15] = biological target: T2, Hepatic sodium/bile acid cotransporter; experiment: TP_TRANSPORTER: uptake of Lagodeoxycholate at a concentration of 1 u M in NTCP-expressing HeLa cells; conditions: human, 1 µM
[16] = biological target: T1, Solute carrier organic anion transporter family member 1A1; experiment: TP_TRANSPORTER: uptake of Muricholate at 1 u M in Oatp1-expressing HeLa cells; conditions: human, 1 µM
[17] = biological target: T2, Hepatic sodium/bile acid cotransporter; experiment: TP_TRANSPORTER: uptake of Muricholate at a concentration of 1 u M in NTCP-expressing HeLa cells; conditions: human, 1 µM
[18] = biological target: T1, Solute carrier organic anion transporter family member 1A1; experiment: TP_TRANSPORTER: uptake of Bromosulfophthalein at 1 u M in Oatp1-expressing HeLa cells; conditions: human, 1 µM
[19] = biological target: T1, Solute carrier organic anion transporter family member 1A1; experiment: TP_TRANSPORTER: uptake of Taurochenodeoxycholate at 20 u M in Oatp1-expressing HeLa cells; conditions: human, 20 µM
[20] = biological target: T1, Solute carrier organic anion transporter family member 1A1; experiment: TP_TRANSPORTER: uptake of Taurolagodeoxycholate at 1 u M in Oatp1-expressing HeLa cells; conditions: human, 1 µM
[21] = biological target: T2, Hepatic sodium/bile acid cotransporter; experiment: TP_TRANSPORTER: uptake of Taurolagodeoxycholate at a concentration of 1 u M in NTCP-expressing HeLa cells; conditions: human, 1 µM
[22] = biological target: T2, Hepatic sodium/bile acid cotransporter; experiment: TP_TRANSPORTER: uptake of Tauromurocholate at a concentration of 1 u M in NTCP-expressing HeLa cells; conditions: human, 1 µM
[23] = biological target: T1, Solute carrier organic anion transporter family member 1A1; experiment: TP_TRANSPORTER: uptake of Tauromurocholate at 1 u M in Oatp1-expressing HeLa cells; conditions: human, 1 µM
[24] = biological target: T1, Solute carrier organic anion transporter family member 1A1; experiment: TP_TRANSPORTER: uptake of Taurotrihydroxycoprostanoic acid at 20 u M in Oatp1-expressing HeLa cells; conditions: human, 20 µM
[25] = biological target: T1, Solute carrier organic anion transporter family member 1A1; experiment: TP_TRANSPORTER: uptake of Tauroursodeoxycholate at 20 u M in Oatp1-expressing HeLa cells; conditions: human, 20 µM
[26] = biological target: T1, Solute carrier organic anion transporter family member 1A1; experiment: TP_TRANSPORTER: uptake of Trihydroxycoprostanoic acid at 20 uM in Oatp1-expressing HeLa cells; conditions: human
[27] = biological target: T1, Solute carrier organic anion transporter family member 1A1; experiment: TP_TRANSPORTER: uptake of Ursodeoxycholate at 20 uM in Oatp1-expressing HeLa cells; conditions: human

Activity [11]: substrate [+]
SMILES: CC(CC(=O)NCC(=O)O)[C@H]1CC[C@@H]2C1[C@@H](O)C[C@@H]1C3CC[C@@H](O)CC3C[C@@H](O)[C@H]12 (some centres not stated) [GLYCOTRIHYDROXYCOPROSTANOIC ACID]

Activity [13]: is not a substrate [-]
SMILES: C[C@H](CCC(=O)O)[C@H]1CC[C@H]2[C@@H]3C[C@H](O)[C@@H]4C[C@H](O)CC[C@]4(C)[C@H]3CC[C@]12C [HYODEOXYCHOLIC_ACID]

Activity [14]: is not a substrate [-]
Activity [15]: is not a substrate [-]
SMILES: C[C@H](CCC(=O)O)[C@H]1CC[C@H]2[C@@H]3CC[C@@H]4C[C@H](O)CC[C@]4(C)[C@H]3C[C@@H](O)[C@]12C [LAGODEOXYCHOLATE]

Activity [19]: substrate [+]
SMILES: C[C@H](CCC(=O)NCCS(=O)(=O)O)[C@H]1CC[C@H]2[C@@H]3[C@H](O)C[C@@H]4C[C@H](O)CC[C@]4(C)[C@H]3CC[C@]12C [TAUROCHENODEOXYCHOLATE]

Activity [20]: substrate [+]
Activity [21]: substrate [+]
SMILES: C[C@H](CCC(=O)NCCS(=O)(=O)O)[C@H]1CC[C@H]2[C@@H]3CC[C@H]4C[C@H](O)CC[C@]4(C)[C@H]3C[C@@H](O)[C@]12C [TAUROLAGODEOXYCHOLATE]

Activity [24]: substrate [+]
SMILES: CC(CCC[C@@H](C)C1CC[C@H]2[C@@H]3[C@H](O)C[C@]4(C(=O)O)C[C@H](O)CC[C@]4(C)[C@H]3C[C@H](O)[C@]12C)C(=O)NCCS(=O)(=O)O (some centres not stated) [TAUROTRIHYDROXYCOPROSTANOIC ACID]

Activity [25]: substrate [+]
SMILES: C[C@H](CCC(=O)NCCS(=O)(=O)O)[C@H]1CC[C@H]2[C@@H]3[C@@H](O)C[C@@H]4C[C@H](O)CC[C@]4(C)[C@H]3CC[C@]12C [TAURURSODIOL]

Activity [26]: is not a substrate [-]
SMILES: CC(C)CCC[C@@H](C)C1CC[C@H]2[C@@H]3[C@H](O)C[C@]4(C(=O)O)C[C@H](O)CC[C@]4(C)[C@H]3C[C@H](O)[C@]12C (some centres not stated) [TRIHYDROXYCOPROSTANOIC ACID]

Second part, the compound before the results:

SMILES: C[C@H](CC(=O)NCCS(=O)(=O)O)[C@H]1CC[C@H]2[C@@H]3[C@H](O)C[C@@H]4C[C@H](O)CC[C@]4(C)[C@H]3C[C@H](O)[C@]12C
Activity [1]: substrate [+]

SMILES: C[C@H](CC(=O)O)[C@H]1CC[C@H]2[C@@H]3[C@H](O)C[C@@H]4C[C@H](O)CC[C@]4(C)[C@H]3C[C@H](O)[C@]12C
Activity [2]: substrate [+]

SMILES: C[C@H](CC(=O)NCC(=O)O)[C@H]1CC[C@H]2[C@@H]3[C@H](O)C[C@@H]4C[C@H](O)CC[C@]4(C)[C@H]3C[C@H](O)[C@]12C
Activity [3]: is not a substrate [-]

SMILES: C[C@H](CCC(=O)O)[C@H]1CC[C@H]2[C@@H]3[C@H](O)C[C@@H]4C[C@H](O)CC[C@]4(C)[C@H]3CC[C@]12C [CHENODIOL]
Activity [4]: is not a substrate [-]

SMILES: C[C@H](CCC(=O)O)[C@H]1CC[C@H]2[C@@H]3CC[C@@H]4C[C@H](O)CC[C@]4(C)[C@H]3C[C@H](O)[C@]12C [DEOXYCHOLIC ACID]
Activity [5]: is not a substrate [-]
Activity [6]: is not a substrate [-]

SMILES: C[C@H](CCC(=O)NCC(=O)O)[C@H]1CC[C@H]2[C@@H]3[C@H](O)C[C@@H]4C[C@H](O)CC[C@]4(C)[C@H]3CC[C@]12C [GLYCOCHENODEOXYCHOLATE]
Activity [7]: is not a substrate [-]

SMILES: C[C@H](CCC(=O)NCC(=O)O)[C@H]1CC[C@H]2[C@@H]3[C@H](O)C[C@@H]4C[C@H](O)CC[C@]4(C)[C@H]3C[C@H](O)[C@]12C [GLYCOCHOLIC ACID]
Activity [8]: substrate [+]
Activity [9]: substrate [+]
Activity [10]: substrate [+]

SMILES: C[C@H](CCC(=O)NCC(=O)O)[C@H]1CC[C@H]2[C@@H]3[C@@H](O)C[C@@H]4C[C@H](O)CC[C@]4(C)[C@H]3CC[C@]12C [GLYCOURSODEOXYCHOLIC ACID]
Activity [12]: substrate [+]

SMILES: C[C@H](CCC(=O)O)C1CC[C@H]2[C@@H]3C(O)C(O)C4C[C@H](O)CC[C@]4(C)[C@H]3CC[C@]12C (some centres not stated) [MURICHOLATE]
Activity [16]: substrate [+]
Activity [17]: substrate [+]

SMILES: O=C1OC(c2ccc(O)c(S(=O)(=O)[O-])c2)(c2ccc(O)c(S(=O)(=O)[O-])c2)c2c(Br)c(Br)c(Br)c(Br)c21.[Na+].[Na+] [SULFOBROMOPHTHALEIN SODIUM]
Activity [18]: substrate [+]

SMILES: C[C@H](CCC(=O)NCCS(=O)(=O)O)[C@H]1CC[C@H]2[C@@H]3C[C@@H](O)[C@@H]4C[C@H](O)CC[C@]4(C)[C@H]3CC[C@]12C [TAUROMUROCHOLATE]
Activity [22]: substrate [+]
Activity [23]: substrate [+]

SMILES: C[C@H](CCC(=O)O)[C@H]1CC[C@H]2[C@@H]3[C@@H](O)C[C@@H]4C[C@H](O)CC[C@]4(C)[C@H]3CC[C@]12C [URSODIOL]
Activity [27]: is not a substrate [-]
